Test results from PMC10938758, “A phenotypic screen of the Global Health Priority Box identifies an insecticide with anthelmintic activity” (Parasites & Vectors, 2024).

What was measured:
[1] = system: exsheathed third-stage larvae (xL3s) of Haemonchus contortus; assay: Primary screen, H. contortus larval development and phenotype (microscopy); details: 20 µM, 168 h
Protocol: An established high-throughput phenotypic screening assay was used to test the anthelmintic activity of compounds on H. contortus xL3s. Compounds were assessed for motility inhibition at a concentration of 20 µM in LB*. […] A solution of LB* + 1% (v/v) DMSO was used as a negative control. Test compounds were distributed amongst one flat-bottom, 384-well microplate (cat no. 3860; Corning, Corning, NY, USA). Eighty xL3s of H. contortus in 20 µl of LB* were added to each well to give a final volume of 40 µl. The plate was then placed in a CO2 incubator (10% [v/v] CO2, 38 °C, > 90% humidity). At 90 h, worm activity was captured using a WMicroTracker ONE unit (Phylumtech, Sunchales, Santa Fe, Argentina). Over a period of 15 min, disturbance of an infrared beam in individual wells was recorded as a worm ‘activity count’. Activity counts were then normalised to the positive and negative controls using the GraphPad Prism program (v.9.1.0 GraphPad Software, San Diego, CA, USA). The screening plate was then returned to the incubator (10% [v/v] CO2, 38 °C, > 90% humidity) for an additional 72 h. At 168 h, worms were fixed with 40 µl of Lugol solution (Sigma-Aldrich, St. Louis, MO, USA). Compounds were then assessed (microscopically) for inhibition of larval development and/or induction of a non-wild-type phenotype in H. contortus worms. […] The performance of the assay was monitored using the Z′-factor [58] calculated using data for the negative (DMSO) and positive (M-666) control compounds on individual plates.

H. contortus xL3s = assay: H. contortus dose-response assay, xL3 motility; parameters: species or system Haemonchus contortus
Protocol: The dose–response assay for H. contortus followed a well-established protocol; it was employed to evaluate the potency of hit compounds against this nematode. Test compounds were assessed individually for an effect on the motility of xL3s (10-point, twofold serial dilution in LB*, 40–0.16 μM). One compound, monepantel (prepared in the same manner as the test compounds), was used as a positive control. A solution of LB* was used as a negative control. The test and positive-control compounds were arrayed in triplicate across individual flat-bottom 96-well microplates, with six wells on each plate containing the negative control. Three hundred xL3s of H. contortus in 50 μl of LB* were added to each well to give a final volume of 100 μl. Plates were then placed in a CO2 incubator (10% [v/v] CO2, 38 °C, > 90% humidity). […] Over a period of 15 min, disturbance of an infrared beam in individual wells was recorded as a worm activity count. Raw activity counts for each well were normalised to the negative controls. The compound concentrations were log10-transformed and fitted using a variable-slope four-parameter equation, using the ordinary least squares fit model, employing GraphPad Prism (v.9.1.0). Larval development was established at 168 h of incubation with compound, as described previously. The development inhibition and phenotypes of larvae were examined microscopically. A one-way analysis of variance (ANOVA) with a Tukey multiple comparison test or an unpaired t-test was used to establish statistically significant differences in larval motility or development.

[2] = Cytotoxicity on HepG2 cells (glucose medium, crystal violet); type: cell-based; details: human, D-glucose medium, read-out: half-maximal cytotoxic concentration (CC50)
Protocol: The cytotoxic and mitotoxic activity of MMV1794206 on HepG2 human hepatoma cells was evaluated using an established protocol. The test compounds were serially diluted (seven-point, twofold serial dilution, 40–0.63 µM) in Dulbecco’s modified Eagle medium (DMEM; Thermo Fisher Scientific, USA), with GlutaMax™ supplemented with 25 mM D-glucose (cytotoxicity) or D-galactose (mitotoxicity), 10% heat-inactivated foetal bovine serum (FBS), 100 IU/ml of penicillin, 100 µg/ml of streptomycin and 0.25 µg/ml of amphotericin B (denoted as DMEM*). Monepantel and moxidectin (prepared in the same manner as the test compound) were included as reference compounds. Two compounds, doxorubicin (cytotoxic; Sigma-Aldrich, USA) and M-666 (mitotoxic; [57]), were used as positive controls at a single concentration of 10 µM. A solution of DMEM* + 0.25% (v/v) DMSO was used as a negative control. HepG2 cells were seeded into wells of a 96-well plate in 80 µl of DMEM* (at 1 × 10^5 cells per well) and allowed to adhere for 16 h at 37 °C and 5% (v/v) CO2 at > 90% humidity prior to incubation with individual compounds, at a final volume of 100 µl. […] Following 48 h of incubation with compounds, cell viability was determined by crystal violet staining. The absorbance (595 nm) of treated cells was normalised using the negative controls (viability: 100%) to calculate the cell viability. […]

[3] = system: HepG2 human hepatoma cells; assay: Mitotoxicity on HepG2 cells (galactose medium, crystal violet); type: cell-based; details: 48 h, D-galactose medium, serum-starved
Protocol: The cytotoxic and mitotoxic activity of MMV1794206 on HepG2 human hepatoma cells was evaluated using an established protocol. […] Monepantel and moxidectin (prepared in the same manner as the test compound) were included as reference compounds. Two compounds, doxorubicin (cytotoxic; Sigma-Aldrich, USA) and M-666 (mitotoxic; [57]), were used as positive controls at a single concentration of 10 µM. A solution of DMEM* + 0.25% (v/v) DMSO was used as a negative control. HepG2 cells were seeded into wells of a 96-well plate in 80 µl of DMEM* (at 1 × 10^5 cells per well) and allowed to adhere for 16 h at 37 °C and 5% (v/v) CO2 at > 90% humidity prior to incubation with individual compounds, at a final volume of 100 µl. For the assessment of mitochondrial toxicity, cells were starved of serum (DMEM* without FBS) for 4 h prior to the incubation with compounds [60, 61]. Following 48 h of incubation with compounds, cell viability was determined by crystal violet staining. The absorbance (595 nm) of treated cells was normalised using the negative controls (viability: 100%) to calculate the cell viability. All compounds and controls were tested in triplicate. […]

SMILES: CC(F)c1ncnc(NCCc2ccc(OC(F)(F)F)cc2)c1Cl (stereo not shown) [MMV1794206, flufenerim]
- Abnormal phenotype ([1]; H. contortus larvae): Cur
- Induction of an abnormal phenotype (in words) ([1]; H. contortus larvae): induced an abnormal phenotype
- inhibition at 20 µM ([1]; Haemonchus contortus, H. contortus, read-out: Larval development inhibition, %): 100%
- IC50 (H. contortus xL3s; Haemonchus contortus, 90 h, read-out: IC50, H. contortus larval motility inhibition): 18 µM
- Maximum motility inhibition (MMI), H. contortus larvae (H. contortus xL3s; xL3s, 90 h of incubation): 98%
- CC50 at 48 h [2]: < 700 nM
- half-maximal mitotoxic concentration (MC50) [3]: < 0.7 µM
